Laboratory results taken from ChEMBL document CHEMBL1201862, “PubChem BioAssay data set” (2004).
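Exposure lasted 48 hours, with cells grown in 96-well plates and compounds tested at five concentrations. Abbreviation: GI50, concentration required for 50% inhibition of growth.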 The source made the active and inactive calls. Cut-off read from the data, not from the text of the source: active = GI50 up to about 1.1 µM and inactive = higher.

How the values were obtained:
Assay in all cases: growth of human tumour cells (NCI), 48 h
ACHN = system: ACHN
SF-268 = system: SF-268
T47D = system: T47D
SK-MEL-28 = system: SK-MEL-28
HL-60 = system: HL-60
MDA-MB-231 = system: MDA-MB-231
DU-145 = system: DU-145
MCF7 = system: MCF7
LOX IMVI = system: LOX IMVI
A549 = system: A549
SNB-19 = system: SNB-19
HT-29 = system: HT-29
Hs-578T = system: Hs-578T
SR = system: SR
MDA-MB-435 = system: MDA-MB-435
CAKI-1 = system: CAKI-1
OVCAR-3 = system: OVCAR-3

Measured: GI50

Fc1ccc2c3c([nH]c2c1)CCNC3
inactive: ACHN 65.3 µM | SF-268 > 100 µM | T47D > 100 µM | SK-MEL-28 > 100 µM | HL-60 > 100 µM | MDA-MB-231 > 100 µM | DU-145 > 100 µM | MCF7 > 100 µM | LOX IMVI > 100 µM | A549 > 100 µM | SNB-19 > 100 µM | HT-29 > 100 µM | Hs-578T > 100 µM | SR > 100 µM | MDA-MB-435 77.1 µM

C=C(Cl)C(Cl)(CBr)CCC(Cl)C(C)(C)Cl (centres undefined)
inactive: ACHN 1.77 µM | SK-MEL-28 1.69 µM | MDA-MB-231 2.16 µM | DU-145 1.35 µM | OVCAR-3 1.61 µM | LOX IMVI 12.9 µM | A549 2.96 µM | SNB-19 2.26 µM | SR 15.1 µM | MDA-MB-435 2.05 µM
active: SF-268 1.08 µM | CAKI-1 1.08 µM | T47D 0.256 µM | HL-60 0.713 µM | MCF7 0.879 µM | HT-29 0.331 µM | Hs-578T 0.0237 µM

CC(C)=CCc1c(O)c(CC=C(C)C)c2oc3c(c(=O)c2c1O)C(C=C(C)C)Oc1cc(O)ccc1-3 (centres undefined)
inactive: ACHN 4.49 µM | SF-268 6.07 µM | CAKI-1 5.87 µM | T47D 3.5 µM | SK-MEL-28 7.53 µM | HL-60 5.85 µM | MDA-MB-231 12.4 µM | DU-145 10.4 µM | MCF7 4.98 µM | OVCAR-3 4.18 µM | LOX IMVI 5.15 µM | A549 5.2 µM | SNB-19 10.5 µM | HT-29 10.3 µM | Hs-578T 12 µM | SR 2.49 µM | MDA-MB-435 3.53 µM

CC(=O)/N=C1/N(/C=C2\C(=O)Oc3ccccc3C2=O)C(=O)/C(=C/c2ccc(Cl)cc2Cl)N1C
inactive: ACHN > 100 µM | SF-268 28.8 µM | CAKI-1 > 100 µM | T47D > 100 µM | SK-MEL-28 73.8 µM | HL-60 36.6 µM | MDA-MB-231 > 100 µM | DU-145 > 100 µM | MCF7 > 100 µM | OVCAR-3 59.2 µM | LOX IMVI 62.2 µM | A549 96.6 µM | HT-29 > 100 µM | SR 17.4 µM | MDA-MB-435 34.2 µM
active: Hs-578T 0.991 µM

O=C(N/N=C\c1ccc(Cl)cc1)Nc1ccc2ccccc2c1
inactive: ACHN 43.6 µM | SF-268 26.9 µM | CAKI-1 41.7 µM | T47D > 100 µM | SK-MEL-28 54.7 µM | MDA-MB-231 41.9 µM | DU-145 > 100 µM | MCF7 87.9 µM | OVCAR-3 > 100 µM | LOX IMVI > 100 µM | A549 52 µM | SNB-19 30.4 µM | HT-29 46.2 µM | Hs-578T 26.9 µM | SR 36.2 µM | MDA-MB-435 49.7 µM

CCOC(=O)C(CC#Cc1ccc(C#CCC(NC(C)=O)C(=O)OCC)cc1)NC(C)=O (centres undefined)
inactive: ACHN > 100 µM | SF-268 > 100 µM | CAKI-1 > 100 µM | T47D > 100 µM | SK-MEL-28 > 100 µM | HL-60 > 100 µM | MDA-MB-231 > 100 µM | DU-145 > 100 µM | MCF7 > 100 µM | OVCAR-3 > 100 µM | LOX IMVI > 100 µM | A549 > 100 µM | SNB-19 > 100 µM | HT-29 > 100 µM | Hs-578T > 100 µM | SR > 100 µM | MDA-MB-435 > 100 µM

CCCCCC/C=C\CCCCCCCCC(=O)c1cccc(OC)c1OC
inactive: ACHN > 100 µM | SF-268 > 100 µM | CAKI-1 > 100 µM | T47D 29.2 µM | SK-MEL-28 > 100 µM | HL-60 14.8 µM | MDA-MB-231 > 100 µM | DU-145 > 100 µM | MCF7 > 10 µM | LOX IMVI 16.8 µM | A549 > 100 µM | SNB-19 > 100 µM | HT-29 41.9 µM | Hs-578T 65.2 µM | SR 64.9 µM | MDA-MB-435 84.7 µM

C[N+]12C=CC=C1C(N1CCCC1)c1scc(-c3ccccc3)c12 (centres undefined)
inactive: SF-268 15.6 µM | CAKI-1 > 100 µM | T47D 4.25 µM | SK-MEL-28 37.2 µM | MDA-MB-231 37.8 µM | DU-145 52.2 µM | MCF7 14.8 µM | OVCAR-3 7.83 µM | LOX IMVI 37.4 µM | A549 59.8 µM | SNB-19 10.6 µM | HT-29 8.65 µM | Hs-578T 9.84 µM | SR 12.6 µM | MDA-MB-435 36.2 µM

COc1cccc(/C=N/NC(=O)CSCC(=O)N/N=C/c2cccc(OC)c2OC)c1OC
inactive: ACHN > 100 µM | SF-268 > 100 µM | CAKI-1 > 100 µM | T47D > 100 µM | SK-MEL-28 > 100 µM | HL-60 > 100 µM | MDA-MB-231 > 100 µM | DU-145 > 100 µM | MCF7 > 100 µM | OVCAR-3 > 100 µM | A549 > 100 µM | SNB-19 > 100 µM | HT-29 > 100 µM | Hs-578T 37.7 µM | SR > 100 µM | MDA-MB-435 > 100 µM

CC(=O)OC1COC(n2nc(/C=C/c3ccc(Cl)cc3)c(=O)n(/N=C/c3ccccc3)c2=S)C(OC(C)=O)C1OC(C)=O (centres undefined)
inactive: ACHN > 100 µM | SF-268 > 100 µM | CAKI-1 > 100 µM | T47D > 100 µM | SK-MEL-28 > 100 µM | HL-60 > 100 µM | MDA-MB-231 > 100 µM | DU-145 > 100 µM | MCF7 > 100 µM | OVCAR-3 > 100 µM | LOX IMVI > 100 µM | A549 > 100 µM | SNB-19 > 100 µM | HT-29 > 100 µM | Hs-578T > 100 µM | SR > 100 µM | MDA-MB-435 > 100 µM

Cc1ccc(O)c(Cc2nc3ccccc3nc2-c2cccc(Cl)c2)c1
inactive: ACHN 49 µM | SF-268 97.5 µM | CAKI-1 52.7 µM | T47D 79.8 µM | HL-60 42 µM | MDA-MB-231 46.3 µM | DU-145 > 100 µM | MCF7 40.8 µM | OVCAR-3 68.9 µM | LOX IMVI 36.8 µM | A549 43.9 µM | SNB-19 21 µM | HT-29 44.3 µM | Hs-578T 30.6 µM | SR 24.7 µM | MDA-MB-435 21.4 µM

Cc1cccc2nc3cccc(C(=O)NCCC[N+](C)(CCCNC(=O)c4cccc5nc6cccc(C)c6nc45)Cc4ccc([N+](=O)[O-])n4C)c3nc12
active: ACHN 0.321 µM | CAKI-1 0.895 µM | MCF7 0.552 µM | LOX IMVI 0.871 µM | A549 0.348 µM | HT-29 0.396 µM | SR 0.294 µM
inactive: T47D 14.9 µM | SK-MEL-28 3.94 µM | MDA-MB-231 17.5 µM | DU-145 1.45 µM | OVCAR-3 3.98 µM | SNB-19 13.1 µM | Hs-578T 18.5 µM | MDA-MB-435 > 27 µM

N=C(N)NCCCC(NC(=O)OCCCCn1ccc(N)nc1=O)C(=O)O (centres undefined)
inactive: ACHN > 100 µM | SF-268 > 100 µM | CAKI-1 > 100 µM | T47D > 100 µM | SK-MEL-28 > 100 µM | HL-60 > 100 µM | MDA-MB-231 > 100 µM | DU-145 > 100 µM | MCF7 > 100 µM | OVCAR-3 > 100 µM | LOX IMVI > 100 µM | A549 > 100 µM | SNB-19 > 100 µM | HT-29 > 100 µM | Hs-578T > 100 µM | SR > 100 µM | MDA-MB-435 > 100 µM

CCN1CCC(O)(c2ccc(Oc3ccc(F)cc3)cc2)C(C(=O)c2ccc(Oc3ccc(F)cc3)cc2)C1 (centres undefined)
inactive: ACHN 13.8 µM | SF-268 16.9 µM | CAKI-1 13 µM | T47D 13.4 µM | SK-MEL-28 15.8 µM | MDA-MB-231 13.2 µM | DU-145 12.2 µM | MCF7 11.5 µM | OVCAR-3 15.2 µM | LOX IMVI 11.8 µM | A549 15 µM | SNB-19 15.8 µM | HT-29 10.6 µM | Hs-578T 17.2 µM | SR 2.33 µM | MDA-MB-435 16.8 µM

O=c1c2cccnc2n2n1Cc1ccccc1C2
inactive: ACHN > 100 µM | SF-268 > 100 µM | CAKI-1 > 100 µM | T47D > 100 µM | SK-MEL-28 > 100 µM | HL-60 > 100 µM | MDA-MB-231 > 100 µM | DU-145 > 100 µM | MCF7 > 100 µM | OVCAR-3 > 100 µM | LOX IMVI > 100 µM | A549 > 100 µM | HT-29 > 100 µM | Hs-578T > 100 µM | SR > 100 µM | MDA-MB-435 > 100 µM

C/C(=N\NC(N)=S)c1cccs1.OB(O)c1ccccc1
inactive: ACHN > 100 µM | SF-268 > 100 µM | T47D 75 µM | SK-MEL-28 > 100 µM | HL-60 > 100 µM | MDA-MB-231 > 100 µM | DU-145 > 100 µM | MCF7 > 100 µM | OVCAR-3 > 100 µM | LOX IMVI > 100 µM | A549 > 100 µM | SNB-19 > 100 µM | HT-29 > 100 µM | Hs-578T > 100 µM | SR > 100 µM | MDA-MB-435 > 100 µM

C=CCN1CCN([C@H](c2ccc(C(=O)N(CC)CC)cc2)c2cccc(OC)c2)CC1
inactive: ACHN > 25 µM | SF-268 > 25 µM | CAKI-1 > 25 µM | T47D > 25 µM | SK-MEL-28 > 25 µM | HL-60 > 25 µM | MDA-MB-231 > 25 µM | DU-145 > 25 µM | MCF7 > 25 µM | OVCAR-3 > 25 µM | A549 > 25 µM | SNB-19 > 25 µM | HT-29 > 25 µM | Hs-578T > 25 µM | SR > 25 µM | MDA-MB-435 > 25 µM
